The values that follow come from patent US20260364080A1, “PYRAZOLO-PYRIMIDINONE COMPOUNDS FOR USE IN METHODS OF INHIBITING WEE1 A KINASE” (Acrivon Therapeutics, Inc., priority 2023, published 2026).

The structures appear in SMILES notation.

Test [1] addresses T1, Myt1 kinase (CDK1 Thr14 phosphorylation in ACHN renal cell carcinoma cells) (Homo sapiens, UniProt Q99640).
T1 construct: pCDK1 Thr14 AlphaLISA read-out
T1 sequence (Q99640 1-499): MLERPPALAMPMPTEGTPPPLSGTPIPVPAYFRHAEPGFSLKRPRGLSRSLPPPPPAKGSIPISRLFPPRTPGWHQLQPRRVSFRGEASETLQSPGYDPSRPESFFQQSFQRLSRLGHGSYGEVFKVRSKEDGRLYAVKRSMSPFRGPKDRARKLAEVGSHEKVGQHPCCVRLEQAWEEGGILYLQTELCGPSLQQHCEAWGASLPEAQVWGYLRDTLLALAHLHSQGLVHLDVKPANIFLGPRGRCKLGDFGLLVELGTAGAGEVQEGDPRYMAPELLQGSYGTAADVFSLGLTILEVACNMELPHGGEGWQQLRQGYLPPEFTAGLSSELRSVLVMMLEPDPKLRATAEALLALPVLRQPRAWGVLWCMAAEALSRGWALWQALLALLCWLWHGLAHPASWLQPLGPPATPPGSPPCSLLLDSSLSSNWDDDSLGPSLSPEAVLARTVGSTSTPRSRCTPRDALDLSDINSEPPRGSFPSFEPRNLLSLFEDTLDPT
As to the kind of experiment: AlphaLISA assay, Myt1 kinase target engagement (phospho-CDK1 Thr14) in ACHN cells. In kind it is cell-based. The conditions noted are these: ACHN cells (marked *); 4 h treatment. How it is done: Each of an ACHN renal cell carcinoma cell line (ATCC) and a DAOY medulloblastoma cell line, and an A427 lung cancer line were cultured in Minimum Essential Medium Eagle supplemented with 10% fetal calf serum (Sigma), 1% Penicillin-Streptomycin and 10 mM HEPES buffer (HyClone). Cell cultures were kept in a humidified incubator at 37 °C and 5% CO2. Cells were routinely tested for Mycoplasma contamination.
For target engagement assessment of Myt1 kinase inhibition, quantification of Cdk1 phosphorylated on threonine 14 was detected using the AlphaLISA® SureFire® Ultra™ Human Phospho-CDK1 (Thr14) assay (Perkin Elmer). DAOY or ACHN cells were seeded into tissue culture treated 96-well plates (VWR) to a density of 10,000 or 20,000 cells per well respectively. 24 h post seeding cells were treated for 4 h with compounds at concentrations ranging from 7 to 5000 nM. Cells were washed with PBS and lysed in 50 μl AlphaLISA lysis buffer before freezing at −80 C. Ten ul of the lysate was transferred to 384 well plates and incubated with AlphaLISA donor and acceptor beads according to the manufacturer's instructions. Dose response curves and EC50 values were calculated and visualized using GraphPad Prism version 9. Target engagement for Myt1 kinase can also be measured using the same AlphaLISA assay in OVCAR3 cells, an ovarian cancer cell line. NIH:OVCAR-3 (OVCAR3) cells are cultured in RPMI-1640 medium supplemented with 0.01 mg/ml insulin, 20% FBS, 1% Penicillin-Streptomycin and 10 mM HEPES buffer. 14,000 cells per well are seeded into 96 well tissue culture plates in full medium. Twenty-four hours post seeding, cells are treated with compound for 4 hours at concentrations ranging from 0.017 nM to 1000 nM.

Test [2] concerns the target T2, Myt1 kinase (recombinant PMYT-1) (Homo sapiens, UniProt Q99640).
T2 construct: full length PMYT-1 was expressed by baculovirus in insect cells; purchased Invitrogen A30984; host or cells: insect cells (baculovirus)
T2 sequence (Q99640 1-499): T1 sequence (Q99640 1-499)
As to the kind of experiment: Myt1 kinase binding assay (LanthaScreen Eu Kinase Binding Assay). The conditions noted are these: 3 nM tracer 178, 2.5 nM PMYT-1, 1 nM Eu-labeled antibody; read-out: Myt1 kinase Binding IC50. The essentials:
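The binding affinity of compounds for Myt1 kinase was measured with a LanthaScreen Europium (Eu) Kinase Binding Assay, a time-resolved FRET format in which test compounds compete against a labeled kinase tracer, and the results were expressed as IC50 values describing compound binding to Myt1.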

For test [3], the target named is T3, recombinant human Wee1A kinase (Homo sapiens, UniProt P30291).
T3 construct: full length Wee1 kinase was expressed by baculovirus in insect cells; purchased Invitrogen PV3817; host or cells: insect cells (baculovirus)
As to the kind of experiment: Wee1A kinase binding assay (LanthaScreen Eu time-resolved FRET). The conditions noted are these: 30 nM tracer 178, 5 nM Wee1A kinase, 2 nM Eu-labeled antibody; 60 minutes at room temperature; read-out: Wee1A kinase Binding IC50. In a few lines: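 Full-length, baculovirus-expressed GST-tagged Wee1A (5 nM) was mixed with 2 nM Eu-anti-GST antibody, 30 nM kinase tracer 178 and compound (1% DMSO). Buffer was 50 mM HEPES pH 7.5, 10 mM MgCl2, 1 mM EGTA, 0.01% Brij-35, incubated 60 min at room temperature. TR-FRET 665/615 nm emission ratios from duplicates were curve-fitted.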

The target in test [4] is T4, Wee1A kinase (CDK1 Tyr15 phosphorylation in ACHN renal cell carcinoma cells) (Homo sapiens, UniProt P30291).
T4 construct: pCDK1 Tyr15 immunofluorescence read-out
As to the kind of experiment: High-content imaging of pCdk1 Y15, Wee1A kinase target engagement in ACHN cells. The conditions noted are these: 4 h treatment, nuclear positivity for pCdk1 Y15 vs DMSO control, read-out: CDK1 Tyr15 Phosphorylation EC50. It is filed as cell-based. In a few lines: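 ACHN cells exposed to compound for 4 h over 7–5,000 nM or 0.3–200 nM, then fixed and immunostained for pCDK1 Y15 with DAPI nuclear counterstain. The percentage of pCdk1 Y15 nucleus-positive cells relative to DMSO control was imaged per well; EC50 from dose-response curves.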

In a further test the test system is ACHN cells. Put plainly: Cell Titer Glo viability assay, ACHN cells. In kind it is cell-based. The conditions noted are these: Homo sapiens, 144 h, absolute EC50. The essentials:
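Cells grown in MEM with 10% FCS were seeded at 500 (A427), 400 (ACHN) or 250 (DAOY) per well and treated the next day with compound at 17 to 10 000 nM. Viability relative to untreated control was read at 144 h by CellTiter-Glo 2.0.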

T3 sequence (P30291 whole entry): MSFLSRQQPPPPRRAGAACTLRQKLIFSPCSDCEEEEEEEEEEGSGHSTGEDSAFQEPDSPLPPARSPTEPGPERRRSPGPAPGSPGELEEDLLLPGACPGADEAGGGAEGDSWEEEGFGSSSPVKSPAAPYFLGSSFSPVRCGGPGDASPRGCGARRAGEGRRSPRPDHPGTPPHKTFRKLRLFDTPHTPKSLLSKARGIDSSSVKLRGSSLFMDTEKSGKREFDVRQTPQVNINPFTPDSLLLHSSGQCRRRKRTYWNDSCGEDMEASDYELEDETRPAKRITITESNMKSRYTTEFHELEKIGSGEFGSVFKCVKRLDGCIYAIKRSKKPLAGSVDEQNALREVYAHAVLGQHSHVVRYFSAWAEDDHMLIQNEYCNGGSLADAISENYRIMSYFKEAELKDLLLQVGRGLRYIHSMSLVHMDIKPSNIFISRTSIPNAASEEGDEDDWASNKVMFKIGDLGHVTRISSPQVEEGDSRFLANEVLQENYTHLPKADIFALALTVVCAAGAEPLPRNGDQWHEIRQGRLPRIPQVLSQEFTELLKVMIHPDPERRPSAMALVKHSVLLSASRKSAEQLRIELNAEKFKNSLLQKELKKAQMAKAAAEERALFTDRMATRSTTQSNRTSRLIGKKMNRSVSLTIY
T4 sequence (P30291 whole entry): as above

In the case of `C=CCn1c(=O)c2cnc(Nc3ccc4nn(C(C)(C)C)cc4c3)nc2n1-c1cccc(OC2CCN(C)CC2)n1` [Compound 396, 2-allyl-6-((2-(tert-butyl)-2H-indazol-5-yl)amino)-1-(6-((1-methylpiperidin-4-yl)oxy)pyridin-2-yl)-1,2-dihydro-3H-pyrazolo[3,4-d]pyrimidin-3-one], the EC50 was less than 0.2 µM in test [1], less than 0.1 µM in test [4] and not above 0.1 µM with ACHN cells. Moreover, the IC50 in test [2] was less than 0.02 µM; in test [3], less than 0.01 µM.

In the case of `C=CCn1c(=O)c2cnc(Nc3ccc4c(cnn4CCC)c3)nc2n1-c1cccc(OC2CCN(C)CC2)n1` [Compound 385, 2-allyl-1-[6-(1-methyl-4-piperidyloxy)-2-pyridyl]-6-(1-propyl-1H-indazol-5-ylamino)-1,2-dihydro-3H-1,2,5,7-tetraazainden-3-one], the results for the half-maximal effective concentration (EC50) (in test [1]; in test [4]; in the test with ACHN cells) were less than 0.2 µM, less than 0.1 µM and not above 0.1 µM, respectively. Further, the IC50 is less than 0.02 µM in test [2] and less than 0.01 µM in test [3].

With `C=CCn1c(=O)c2cnc(Nc3ccc4c(cnn4CCCF)c3)nc2n1-c1cccc(OC2CCNCC2)n1` [Compound 397, 2-allyl-6-((1-(3-fluoropropyl)-1H-indazol-5-yl)amino)-1-(6-(piperidin-4-yloxy)pyridin-2-yl)-1,2-dihydro-3H-pyrazolo[3,4-d]pyrimidin-3-one], the half-maximal effective concentration (EC50) in test [1] is 0.5 to 1 µM; in test [4] it was less than 0.1 µM; in the test with ACHN cells, not above 0.1 µM. Further, the half-inhibitory concentration (IC50) is 0.02 to 0.1 µM in test [2] and less than 0.01 µM in test [3].

Regarding `C=CCn1c(=O)c2cnc(Nc3ccc4c(cnn4CCCF)c3)nc2n1-c1cccc(OC2CCN(C)CC2)n1` [Compound 387, 2-allyl-6-((1-(3-fluoropropyl)-1H-indazol-5-yl)amino)-1-(6-((1-methylpiperidin-4-yl)oxy)pyridin-2-yl)-1,2-dihydro-3H-pyrazolo[3,4-d]pyrimidin-3-one], the figures for the 50% effective concentration (EC50) (in test [1]; in test [4]; in the test with ACHN cells) were less than 0.2 µM, less than 0.1 µM and not above 0.1 µM, respectively. Moreover, the IC50 in test [2] is 0.02 to 0.1 µM; in test [3] it was less than 0.01 µM.

For the molecule `C=CCn1c(=O)c2cnc(Nc3ccc4c(cnn4C)c3)nc2n1-c1cccc(OC2CCCN(C)CC2)n1` (single isomer, unassigned) [Compound 373], the concentration giving a half-maximal response (EC50) in test [1] was 0.2 to 0.5 µM; in test [4], less than 0.1 µM; with ACHN cells, not above 0.1 µM. Besides, the half-maximal inhibitory concentration (IC50) is less than 0.02 µM in test [2] and less than 0.01 µM in test [3].

For `C=CCn1c(=O)c2cnc(Nc3ccc(N4CCOCC4)cc3)nc2n1-c1cccc(OC2CCN(C)CC2)n1` [Compound 278, 2-allyl-1-(6-((1-methylpiperidin-4-yl)oxy)pyridin-2-yl)-6-((4-morpholinophenyl)amino)-1,2-dihydro-3H-pyrazolo[3,4-d]pyrimidin-3-one], the figures for the EC50 (in test [1]; in test [4]; in the test with ACHN cells) were less than 0.2 µM, less than 0.1 µM and not above 0.1 µM, respectively. The IC50 is 0.02 to 0.1 µM in test [2] and less than 0.01 µM in test [3].

As to `C=CCn1c(=O)c2cnc(Nc3ccc4c(ccn4C(C)=O)c3)nc2n1-c1cccc(OC2CCN(C)CC2)n1` [Compound 392, 6-((1-acetyl-1H-indol-5-yl)amino)-2-allyl-1-(6-((1-methylpiperidin-4-yl)oxy)pyridin-2-yl)-1,2-dihydro-3H-pyrazolo[3,4-d]pyrimidin-3-one], the 50% effective concentration (EC50) in test [1] is less than 0.2 µM; in test [4], less than 0.1 µM; in the test on ACHN cells, not above 0.1 µM. For the same molecule, the half-inhibitory concentration (IC50) in test [2] is 0.02 to 0.1 µM; in test [3] it was less than 0.01 µM.

Consider `C=CCn1c(=O)c2cnc(Nc3ccc4c(cnn4C4CC4)c3)nc2n1-c1cccc(OC2CCN(C)CC2)n1` [Compound 386, 2-allyl-6-((1-cyclopropyl-1H-indazol-5-yl)amino)-1-(6-((1-methylpiperidin-4-yl)oxy)pyridin-2-yl)-1,2-dihydro-3H-pyrazolo[3,4-d]pyrimidin-3-one], for which the EC50 in test [1] is less than 0.2 µM; in test [4], less than 0.1 µM; in the test with ACHN cells, not above 0.1 µM. Moreover, the half-inhibitory concentration (IC50) is less than 0.02 µM in test [2] and less than 0.01 µM in test [3].

Regarding `C=CCn1c(=O)c2cnc(Nc3ccc4c(cnn4CCC)c3)nc2n1-c1cccc(OC2CCNCC2)n1` [Compound 390, 2-allyl-1-[6-(4-piperidyloxy)-2-pyridyl]-6-(1-propyl-1H-indazol-5-ylamino)-1,2-dihydro-3H-1,2,5,7-tetraazainden-3-one], the EC50 in test [1] was less than 0.2 µM; in test [4] it was less than 0.1 µM; in the test with ACHN cells, not above 0.1 µM. For the same molecule, the IC50 is less than 0.02 µM in test [2] and less than 0.01 µM in test [3].

For the molecule `C=CCn1c(=O)c2cnc(Nc3ccc4c(cnn4C)c3)nc2n1-c1cccc(NC2CCN(C)CC2)n1` [Compound 129, 6-[(1-methyl-1H-indazol-5-yl)amino]-1-{6-[(1-methylpiperidin-4-yl)amino]pyridin-2-yl}-2-(prop-2-en-1-yl)-1H,2H,3H-pyrazolo[3,4-d]pyrimidin-3-one], the 50% effective concentration (EC50) in test [1] is more than 1 µM; in test [4], less than 0.1 µM; in the test with ACHN cells, not above 0.1 µM. Also, the values for the concentration for half-maximal inhibition (IC50) in test [2] and in test [3] were 0.1 to 0.5 µM and less than 0.01 µM, respectively.

As to `C=CCn1c(=O)c2cnc(Nc3ccc4cn(C)nc4c3)nc2n1-c1cccc(OC2CCN(C)CC2)n1` [Compound 398, 2-allyl-6-((2-methyl-2H-indazol-6-yl)amino)-1-(6-((1-methylpiperidin-4-yl)oxy)pyridin-2-yl)-1,2-dihydro-3H-pyrazolo[3,4-d]pyrimidin-3-one], the concentration giving a half-maximal response (EC50) in test [1] is 0.2 to 0.5 µM; in test [4], less than 0.1 µM; with ACHN cells it was not above 0.1 µM. Besides, the figures for the IC50 in test [2] and in test [3] were 0.02 to 0.1 µM and less than 0.01 µM, respectively.

In the case of `CCn1c(=O)c2cnc(Nc3ccc(-c4cnn(C)c4)cc3)nc2n1-c1cccc(OC2CCN(C)CC2)n1` [Compound 277, 2-ethyl-1-[6-(1-methyl-4-piperidyloxy)-2-pyridyl]-6-[p-(1-methyl-4-pyrazolyl)phenylamino]-1,2-dihydro-3H-1,2,5,7-tetraazainden-3-one], the figures for the EC50 (in test [1]; in test [4]; with ACHN cells) were less than 0.2 µM, less than 0.1 µM and not above 0.1 µM, respectively. Besides, the IC50 was 0.02 to 0.1 µM in test [2] and less than 0.01 µM in test [3].
